Results on one molecule are retold here after article PMC7920489 (Pharmaceuticals, 2021).

Where two headings read alike, the source gives them in different places.

A short description of series [1]: in vivo. The conditions noted are these: nude, mouse, ip, 50 mg/kg.
For series [2] the following is noted: nude, mouse, in vivo, ip, 50 mg/kg.

For `COc1cccc(-c2cc(=O)c3ccccc3o2)c1NC(=O)C(C)(C)c1cc(C(=O)Nc2ccc(N(CCCl)CCCl)cc2)ccc1N` [AL530], the tmax stood at 2 h in series [1] and 2.5 h in series [2].
